How the values were obtained:
Format in all cases: cell-based
TYK2 [1] = target: T1, TYK2 (Homo sapiens, UniProt P29597); test: TYK2 degradation MSD assay in EBV-B cells; set-up: endogenous in cells; host or cells: EBV-B cells; conditions: 4 to 24 hours incubation, read-out: TYK2 MSD DC50 rating in EBV-B
Outline: (§1)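 Cells (0.4 million per well) were treated with a 9-point, 1:3 compound series from a top concentration of 1 to 10 μM for 4 to 24 hours at 37° C, then lysed in RIPA with protease/phosphatase inhibitors. Remaining TYK2 was quantified by sandwich MSD immunoassay; DC50 came from four-parameter nonlinear fits.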

TYK2 [2] = target: T1, TYK2; test: TYK2 degradation MSD assay in OCI-LY10 cells; set-up: endogenous in cells; host or cells: EBV-B cells; conditions: 4 to 24 hours incubation, read-out: TYK2 MSD DC50 rating in OCI-LY10
Outline: as §1

TYK2 [3] = target: T1, TYK2; test: TYK2 degradation MSD assay in human PBMC cells; set-up: endogenous in cells; host or cells: human PBMC; conditions: 4 to 24 hours incubation, read-out: TYK2 MSD DC50 rating in human PBMC
Outline: as §1

T1 sequence (P29597 whole entry): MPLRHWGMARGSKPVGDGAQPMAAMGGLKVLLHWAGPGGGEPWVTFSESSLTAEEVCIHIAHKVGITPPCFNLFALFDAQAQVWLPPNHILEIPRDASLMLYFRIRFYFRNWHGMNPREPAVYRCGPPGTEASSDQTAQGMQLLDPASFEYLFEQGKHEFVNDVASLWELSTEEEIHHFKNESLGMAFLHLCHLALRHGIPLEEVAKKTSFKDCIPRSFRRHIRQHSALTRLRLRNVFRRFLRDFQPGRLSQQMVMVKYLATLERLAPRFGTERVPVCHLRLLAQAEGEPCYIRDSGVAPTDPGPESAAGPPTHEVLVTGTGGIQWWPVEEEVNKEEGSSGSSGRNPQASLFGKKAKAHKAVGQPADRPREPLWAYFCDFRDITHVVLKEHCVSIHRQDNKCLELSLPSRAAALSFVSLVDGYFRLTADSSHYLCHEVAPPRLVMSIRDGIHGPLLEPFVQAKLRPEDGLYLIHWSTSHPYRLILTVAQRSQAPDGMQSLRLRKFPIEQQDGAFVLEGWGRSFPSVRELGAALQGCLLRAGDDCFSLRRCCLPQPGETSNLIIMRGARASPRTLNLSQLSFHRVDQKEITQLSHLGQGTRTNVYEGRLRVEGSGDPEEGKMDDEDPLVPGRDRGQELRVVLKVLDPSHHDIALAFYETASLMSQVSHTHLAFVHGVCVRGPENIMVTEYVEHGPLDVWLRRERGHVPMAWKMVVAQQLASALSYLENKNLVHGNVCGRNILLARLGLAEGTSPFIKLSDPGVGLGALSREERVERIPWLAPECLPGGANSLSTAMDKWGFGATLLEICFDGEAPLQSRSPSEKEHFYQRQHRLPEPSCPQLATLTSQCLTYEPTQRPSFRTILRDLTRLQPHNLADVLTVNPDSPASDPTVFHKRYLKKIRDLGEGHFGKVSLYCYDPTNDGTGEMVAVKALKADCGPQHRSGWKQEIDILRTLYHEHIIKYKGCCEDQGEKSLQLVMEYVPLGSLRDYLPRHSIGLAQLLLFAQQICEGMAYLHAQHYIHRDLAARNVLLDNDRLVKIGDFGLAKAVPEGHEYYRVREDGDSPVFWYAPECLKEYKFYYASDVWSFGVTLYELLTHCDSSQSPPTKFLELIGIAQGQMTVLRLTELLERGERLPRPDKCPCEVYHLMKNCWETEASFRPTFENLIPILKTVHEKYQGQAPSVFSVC

SMILES | DC50 (TYK2 [1]) | DC50 (TYK2 [2]) | DC50 (TYK2 [3])
CNc1cc(Nc2ccccc2C(=O)NCCCCCCCCc2cccc3c2n(C)c(=O)n3C2CCC(=O)NC2=O)nn2c(C(=O)N[C@@H]3C[C@@H]3F)cnc12 (stereo partly drawn) [Example K258] | > 0.1 µM | > 0.1 µM | < 0.001 µM
CNc1cc(Nc2cccc(CN3CCN(C(=O)CCc4ccc(-c5ccc6c(c5)n(C)c(=O)n6C5CCC(=O)NC5=O)cc4)CC3)c2)nn2c(C(=O)NC3CC3)cnc12 (stereo not drawn) [Example K587] | > 0.1 µM | 0.001 to 0.01 µM | > 0.1 µM
CNc1cc(Nc2cccn(-c3ccc(C(=O)NC4CCC(CN(C)CC5CCN(Cc6ccc7c(c6)n(C)c(=O)n7C6CCC(=O)NC6=O)CC5)CC4)cn3)c2=O)nn2c(C(=O)N[C@@H]3C[C@@H]3F)cnc12 (stereo partly drawn) [Example K447] | > 0.1 µM | < 0.001 µM | > 0.1 µM
CNc1cc(Nc2cccc(CN3CCN(c4ccc(-c5ccc6c(c5)n(C)c(=O)n6C5CCC(=O)NC5=O)cc4)CC3)c2OC)nn2c(C(=O)N[C@@H]3C[C@@H]3F)cnc12 (stereo partly drawn) [Example K576] | > 0.1 µM | > 0.1 µM | > 0.1 µM
CNc1cc(Nc2cccc(CN3CC4(CCN(c5ccc(-c6ccc7c(c6)n(C)c(=O)n7C6CCC(=O)NC6=O)cn5)CC4)C3)c2)nn2c(C(=O)NC3CC3)cnc12 (stereo not drawn) [Example K586] | > 0.1 µM | 0.001 to 0.01 µM | > 0.1 µM
CNC(=O)c1cnc(Nc2ccc(CN3CC(C)(Cc4ccc5c(c4)n(C)c(=O)n5C4CCC(=O)NC4=O)C3)cn2)cc1Nc1cccc(-c2ncc(F)cn2)c1OC (stereo not drawn) [Example K142] | < 0.001 µM | > 0.1 µM | 0.001 to 0.01 µM
CNc1cc(-c2cnn(C3CCC(CN4CC5(CCN(c6cccc7c6n(C)c(=O)n7C6CCC(=O)NC6=O)CC5)C4)CC3)c2)nn2c(C(=O)NC3C[C@@H]3F)cnc12 (stereo partly drawn) [Example K362] | > 0.1 µM | > 0.1 µM | < 0.001 µM
CNc1cc(-c2ccc(-c3ccc(CN4CCN(c5ccc(-c6ccc7c(c6)n(C)c(=O)n7C6CCC(=O)NC6=O)cc5)CC4)cc3)c3nccn23)nn2c(C(=O)N[C@@H]3C[C@@H]3C)cnc12 (stereo partly drawn) [Example K492] | > 0.1 µM | 0.01 to 0.1 µM | > 0.1 µM
CNc1cc(Nc2cccn(-c3ccc(C(=O)N4CCC5(CCN(c6cnc(C#Cc7ccc8c(c7)n(C)c(=O)n8C7CCC(=O)NC7=O)nc6)C5=O)C4)cn3)c2=O)nn2c(C(=O)N[C@@H]3C[C@@H]3F)cnc12 (stereo partly drawn) [Example K409] | > 0.1 µM | 0.001 to 0.01 µM | > 0.1 µM
CNc1cc(Nc2cnn(CC3CCN(CC4CCN(c5ccc6c(c5)n(C)c(=O)n6C5CCC(=O)NC5=O)CC4)CC3)c2)nn2c(C(=O)N[C@@H]3C[C@@H]3F)cnc12 (mixture of isomers) [Example K548] | > 0.1 µM | > 0.1 µM | > 0.1 µM
CNc1cc(Nc2cccn(-c3cccc(C(=O)NCCOCCOCCOCCOCCc4ccc5c(c4)n(C)c(=O)n5C4CCC(=O)NC4=O)c3)c2=O)nn2c(C(=O)N[C@@H]3C[C@@H]3F)cnc12 (stereo partly drawn) [Example K239] | > 0.1 µM | > 0.1 µM | > 0.1 µM
CNc1cc(Nc2cccn(-c3ccc(C(=O)N(C)C4CCC(N5CCN(c6ccc7c(c6)n(C)c(=O)n7C6CCC(=O)NC6=O)CC5)CC4)cn3)c2=O)nn2c(C(=O)N[C@@H]3C[C@@H]3F)cnc12 (stereo partly drawn) [Example K427] | > 0.1 µM | < 0.001 µM | > 0.1 µM
CNc1cc(Nc2cccn(-c3cccc(C(=O)NCCOCCOCCOCCOCCc4cccc5c4n(C)c(=O)n5C4CCC(=O)NC4=O)c3)c2=O)nn2c(C(=O)N[C@@H]3C[C@@H]3F)cnc12 (stereo partly drawn) [Example K240] | > 0.1 µM | > 0.1 µM | > 0.1 µM
CNc1cc(Nc2cccc(-c3ccc(CN4CCN([C@H]5CC[C@@H](c6ccc7c(c6)n(C)c(=O)n7C6CCC(=O)NC6=O)CC5)CC4)cn3)c2OC)nn2c(C(=O)N[C@@H]3C[C@@H]3F)cnc12 (mixture of isomers) [Example K552] | < 0.001 µM | < 0.001 µM | > 0.1 µM
CNc1cc(Nc2cccc(-c3ccc(CN4CCC(CCc5cccc6c5n(C)c(=O)n6C5CCC(=O)NC5=O)CC4)cn3)c2)nn2c(C(=O)N[C@@H]3C[C@@H]3F)cnc12 (stereo partly drawn) [Example K507] | 0.001 to 0.01 µM | < 0.001 µM | > 0.1 µM
CNC(=O)c1cnc(Nc2ccc(CN3CCN(C(=O)CCc4ccc5c(c4)n(C)c(=O)n5C4CCC(=O)NC4=O)CC3)cn2)cc1Nc1cccc(-c2ncc(F)cn2)c1OC (stereo not drawn) [Example K143] | > 0.1 µM | > 0.1 µM | < 0.001 µM
CNc1cc(Nc2cccn(-c3cc(C(=O)NCCCCc4cccc5c4n(C)c(=O)n5C4CCC(=O)NC4=O)ccn3)c2=O)nn2c(C(=O)N[C@@H]3C[C@@H]3F)cnc12 (stereo partly drawn) [Example K228] | > 0.1 µM | > 0.1 µM | 0.001 to 0.01 µM
CNC(=O)c1cnc(Nc2ccc(N3CCN(c4ccc5c(c4)n(C)c(=O)n5C4CCC(=O)NC4=O)CC3)cn2)cc1Nc1cccc(-c2ncc(F)cn2)c1OC (stereo not drawn) [Example K196] | > 0.1 µM | < 0.001 µM | < 0.001 µM

SMILES | DC50 (TYK2 [1]) | DC50 (TYK2 [2]) | DC50 (TYK2 [3])
CNC(=O)c1cnc(Nc2ccc(CN3CCC(N(C)c4ccc5c(c4)n(C)c(=O)n5C4CCC(=O)NC4=O)CC3)cn2)cc1Nc1cccc(-c2ncc(F)cn2)c1OC (stereo not drawn) [Example K175] | < 0.001 µM | > 0.1 µM | < 0.001 µM
CNC(=O)c1cnc(Nc2ccc(CN(C)C3CN(c4ccc5c(c4)n(C)c(=O)n5C4CCC(=O)NC4=O)C3)cn2)cc1Nc1cccc(-c2ncc(F)cn2)c1OC (stereo not drawn) [Example K153] | > 0.1 µM | < 0.001 µM | < 0.001 µM
CCNC(=O)c1cnc2c(NC)cc(Nc3cccc(-c4ccc(CN5CCN(c6ccc(-c7ccc8c(c7)n(C)c(=O)n8C7CCC(=O)NC7=O)cc6)CC5)cn4)c3OC)nn12 (stereo not drawn) [Example K526] | > 0.1 µM | 0.001 to 0.01 µM | > 0.1 µM
CNC(=O)c1cnc(Nc2ccc(CN3CCC(c4ccc5c(c4)n(C)c(=O)n5C4CCC(=O)NC4=O)CC3)cn2)cc1Nc1cccc(-c2ncc(F)cn2)c1OC (stereo not drawn) [Example K172] | < 0.001 µM | > 0.1 µM | > 0.1 µM
CNC(=O)c1cnc(NC(=O)NCCCCCCCCc2ccc3c(c2)n(C)c(=O)n3C2CCC(=O)NC2=O)cc1Nc1cccc(-c2ncc(F)cn2)c1OC (stereo not drawn) [Example K187] | > 0.1 µM | > 0.1 µM | 0.001 to 0.01 µM
Cn1c(=O)n(C2CCC(=O)NC2=O)c2cccc(N3CCC4(CC3)CN(Cc3ccc(-c5cccc(Nc6ccc7ncc(C(=O)NC8CC8)n7n6)c5)nc3)C4)c21 (stereo not drawn) [Example K452] | > 0.1 µM | > 0.1 µM | > 0.1 µM
CNC(=O)c1cnc(Nc2cc(C(=O)NCCCCc3cccc4c3n(C)c(=O)n4C3CCC(=O)NC3=O)ccn2)cc1Nc1cccc(-c2ncc(F)cn2)c1OC (stereo not drawn) [Example K128] | > 0.1 µM | > 0.1 µM | 0.001 to 0.01 µM
CNc1cc(N2CCc3c(C4CCN(CC5CCN(C(=O)c6ccc(Cl)c(N7CCC(=O)NC7=O)c6)CC5)CC4)cccc32)nn2c(C(=O)N[C@@H]3C[C@@H]3F)cnc12 (racemic) [Example K535] | > 0.1 µM | > 0.1 µM | > 0.1 µM
Cn1c(=O)n(C2CCC(=O)NC2=O)c2ccc(C#CC3CCN(Cc4ccc(-c5cccc(Nc6ccc7ncc(C(=O)NC8CC8)n7n6)c5)nc4)CC3)cc21 (stereo not drawn) [Example K404] | > 0.1 µM | > 0.1 µM | > 0.1 µM
CNc1cc(Nc2ccccc2C(=O)NCCCCc2cccc3c2n(C)c(=O)n3C2CCC(=O)NC2=O)nn2c(C(=O)N[C@@H]3C[C@@H]3F)cnc12 (stereo partly drawn) [Example K253] | > 0.1 µM | > 0.1 µM | > 0.1 µM
Cn1c(=O)n(C2CCC(=O)NC2=O)c2ccc(CCCCNC(=O)c3ccc(-n4cccc(Nc5ccc6ncc(C(=O)N[C@@H]7C[C@@H]7F)n6n5)c4=O)nc3)cc21 (stereo partly drawn) [Example K325] | > 0.1 µM | > 0.1 µM | > 0.1 µM
CNC(=O)c1cnc(Nc2cc(C(=O)NCCCCCCc3cccc4c3n(C)c(=O)n4C3CCC(=O)NC3=O)ccn2)cc1Nc1cccc(-c2ncc(F)cn2)c1OC (stereo not drawn) [Example K193] | 0.001 to 0.01 µM | > 0.1 µM | 0.001 to 0.01 µM
CNc1cc(-c2ccc(C3CCN(CC4CCN(c5ccc(-c6ccc7c(c6)n(C)c(=O)n7C6CCC(=O)NC6=O)cc5)CC4)CC3)cc2)nn2c(C(=O)N[C@@H]3C[C@@H]3F)cnc12 (stereo partly drawn) [Example K530] | > 0.1 µM | > 0.1 µM | > 0.1 µM
CNc1cc(-c2cnn(C3CCC(CN4CCC(CN(C)c5ccc6c(c5)n(C)c(=O)n6C5CCC(=O)NC5=O)CC4)CC3)c2)nn2c(C(=O)NC3C[C@@H]3F)cnc12 (stereo partly drawn) [Example K364] | > 0.1 µM | > 0.1 µM | > 0.1 µM
CNc1cc(Nc2cccn(-c3cccc(C(=O)NCCCCCCCCCCc4ccc5c(c4)n(C)c(=O)n5C4CCC(=O)NC4=O)c3)c2=O)nn2c(C(=O)N[C@@H]3C[C@@H]3F)cnc12 (stereo partly drawn) [Example K225] | > 0.1 µM | > 0.1 µM | 0.001 to 0.01 µM
CNc1cc(Nc2cccn(-c3ccc(C(=O)NC4CCC(CN(C)C5CCN(Cc6ccc7c(c6)n(C)c(=O)n7C6CCC(=O)NC6=O)CC5)CC4)cn3)c2=O)nn2c(C(=O)N[C@@H]3C[C@@H]3F)cnc12 (stereo partly drawn) [Example K428] | > 0.1 µM | < 0.001 µM | > 0.1 µM
CNc1cc(Nc2cccn(-c3ccc(C(=O)N(C)CCCOCCCc4cccc5c4n(C)c(=O)n5C4CCC(=O)NC4=O)cn3)c2=O)nn2c(C(=O)N[C@@H]3C[C@@H]3F)cnc12 (stereo partly drawn) [Example K369] | > 0.1 µM | > 0.1 µM | 0.001 to 0.01 µM

From US20250051338A1, “TYK2 DEGRADERS AND USES THEREOF” (Kymera Therapeutics, Inc., priority 2021, published 2025)
